Source: patent US10921397B2, “Hyperpolarized micro-NMR system and methods” (Memorial Sloan Kettering Cancer Center, priority 2016, dated 2021)

Legend:
[1] = test system: K562 cells; details: 24 hours of drug treatment, concentrations as high as 1 μM
Procedure: K562 cells were plated with a concentration of 100,000 cells/mL in 10 mL complete RPMI media. […] Two sets of four flasks (two flasks per each sample) were prepared and stored in an incubator for 24 hours. Cell number and viability were checked after 24 hours, and cells were washed with complete RPMI media once and prepared for hyperpolarization experiments.
The cell number and the viability were measured using CELLOMETER Mini cell counter (Nexcelom Bioscience); the cell suspension was mixed at 1:1 ratio with the trypan blue solution before the measurement. For each measurement, the cell suspension was diluted to make its concentration within a range of 0.8-2×10^6/mL.

[2] = test system: LDH-A; assay: Western blot of LDH-A phosphorylation in K562 cells after treatment; type: cell-based; details: imatinib treatment, 24 hours
Source text: Imatinib was purchased from Cayman Chemical.

[3] = test system: K562 cells; assay: Lactate concentration (pool size) in cell culture media by conventional high-field NMR spectrometer; type: cell-based; details: 1 μM imatinib
Procedure: Each lactate signal was acquired by a conventional high-field NMR spectrometer. All measurements were performed in triplicate. Error bars show the standard deviation.

In the case of Cc1ccc(NC(=O)c2ccc(CN3CCN(C)CC3)cc2)cc1Nc1nccc(-c2cccnc2)n1 [imatinib, Imatinib], the cell viability [1] was “not significantly changed”, the “phosphorylation of LDH-A” value [2] was “decreased phosphorylation” and the “time required to make a significant change in the lactate pool size” value [3] was “about 12 hours”.
